This note sets out measurements from patent publication US20240316146A1, “METHODS OF REDUCING NEUROPATHY AND NEUROPATHIC SYMPTOMS AND TREATING CANCER” (Bexion Pharmaceuticals Inc., priority 2021, published 2024).

Where “and” joins values, the source holds several entries; their conditions need not be identical. Identical values can stand only once.

The assay deals with mouse oxaliplatin model of chemotherapy-induced neuropathy. The experiment in a line: Thermal hypersensitivity, cold plate test 15° C., Study 1. The class given is in vivo. Here is the method:
60 adult male C57/BL6 mice (Charles River), 6-7 weeks of age, were housed in groups of 5 in Perspex cages, in a controlled environment of constant temperature and humidity (temperature: 21±1° C., light: dark cycle of 12:12 hours), with food and water available ad libitum. Animals were allowed to recover from transportation for at least one week before commencing experiments.
Thermal hypersensitivity: Thermal hypersensitivity was assessed using a dynamic cold plate (Bioseb, France) set at a fixed temperature of 15° C. This method allows analysis of more integrated behaviors rather than reflex behaviors, e.g., the tail immersion test. In animal studies, thermal sensitivity is mostly evaluated based on nociceptive reaction latencies in response to a given thermal aversive stimulus. In this classical test, the temperature of the plate is fixed and remains constant: the latency to the first paw licking, jumps or withdrawal is taken as an index of nociceptive threshold. […] The results of the study are shown in Table 5 (raw data) below, Table 6 (summary) below, FIG. 4, and FIG. 5.
Warm vials of BQX-350 were brought to room temperature and reconstituted with 4 mL water for injection via syringe. The vials were gently agitated and/or vortexed for 15-20 sec and allowed to sit at room temp for 5 mins. The rehydrated solution contained 2.2 mg/mL SapC (8.8 mg SapC per vial). About […] of the formulation was injected to achieve a target dose of 20 mg/kg in each mouse. Pregabalin was reconstituted in water and injected to achieve a target dose of 30 mg/kg in each mouse.
A two-way repeated measures ANOVA with ‘treatment’ as a between subjects effect, and ‘day’ as a within subjects effect was used (using GraphPad Prism version 9.0 for Windows, GraphPad Software, San Diego California USA), followed by Dunnett's multi comparisons test. Data is presented as mean±SEM.

Setting [1] is: cold plate 15° C., oxaliplatin 10 mg/kg IP day 0 (+vehicle, BXQ-350 20 mg/kg IP or pregabalin 30 mg/kg IP), group mean.

For the compound `O=C([O-])C(=O)[O-].[NH-][C@@H]1CCCC[C@H]1[NH-].[Pt+4]` (relative stereo) [Oxaliplatin, cis-[(1R,2R)-1,2-cyclohexanediamine-N,N′][oxalato(2)-O,O′] platinum], the “Latency (s) Baseline” value under setting [1] was determined as 54.717 s. In addition, under setting [1], the “Latency (s) D 3” value is recorded as 25.583 s. Besides, the “Latency (s) D 5” value under setting [1] was 28.567 s. Moreover, under setting [1], the “Latency (s) D 7” value was 32.475 s. The “Latency (s) D 9” value under setting [1] stood at 22.050 s. The “Individual latency to displaying withdrawal behaviour in the cold plate test” value is, setting by setting: (oxaliplatin 10 mg/kg IP day 0 (+vehicle, BXQ-350 20 mg/kg IP or pregabalin 30 mg/kg IP), Baseline, individual mice) 45.4 s and 59.0 s and 48.3 s and 65.5 s and 80.0 s and 54.3 s and 46.2 s and 46.7 s and 46.5 s and 58.8 s and 48.6 s and 57.6 s; (oxaliplatin 10 mg/kg IP day 0 (+vehicle, BXQ-350 20 mg/kg IP or pregabalin 30 mg/kg IP), Day 3, individual mice) 22.9 s and 19.5 s and 25.9 s and 24.2 s and 30.2 s and 15.0 s and 31.3 s and 34.1 s and 22.0 s and 24.3 s and 35.5 s and 22.1 s; (oxaliplatin 10 mg/kg IP day 0 (+vehicle, BXQ-350 20 mg/kg IP or pregabalin 30 mg/kg IP), Day 5, individual mice) 30.3 s and 27.7 s and 39.8 s and 17.3 s and 31.1 s and 38.3 s and 24.5 s and 18.5 s and 16.0 s and 30.1 s and 33.9 s; (oxaliplatin 10 mg/kg IP day 0 (+vehicle, BXQ-350 20 mg/kg IP or pregabalin 30 mg/kg IP), Day 7, individual mice) 16.8 s and 45.9 s and 49.6 s and 37.6 s and 24.3 s and 28.8 s and 18.6 s and 23.0 s and 62.9 s and 31.8 s and 21.5 s and 28.9 s; (oxaliplatin 10 mg/kg IP day 0 (+vehicle, BXQ-350 20 mg/kg IP or pregabalin 30 mg/kg IP), Day 9, individual mice) 12.6 s and 13.6 s and 24.8 s and 23.1 s and 31.8 s and 20.9 s and 17.4 s and 25.0 s and 10.6 s and 19.4 s and 25.8 s. Further, the “thermal (cold) sensitivity, cold plate test (in words)” value (oxaliplatin treated animals, day 3 to day 9, BXQ-350 20 mg/kg, pregabalin 30 mg/kg 2 hours before assessment) was “increased thermal (cold) sensitivity”.
